Measurements reported in ChEMBL document CHEMBL4680288, “Cholesteryl ester transfer protein (CETP) inhibitors based on cyclic urea, bicyclic urea and bicyclic sulfamide cores” (Bioorg Med Chem Lett, 2021).

Experiments:
[1] = target: T1, Cholesteryl ester transfer protein (Homo sapiens, UniProt P11597); assay: Inhibition of recombinant CETP (unknown origin) assessed as inhibition of transfer of [3H] cholesteryl oleate or [3H] triolein between exogenous LDL and HDL in 2% human serum
T1 sequence (P11597 whole entry): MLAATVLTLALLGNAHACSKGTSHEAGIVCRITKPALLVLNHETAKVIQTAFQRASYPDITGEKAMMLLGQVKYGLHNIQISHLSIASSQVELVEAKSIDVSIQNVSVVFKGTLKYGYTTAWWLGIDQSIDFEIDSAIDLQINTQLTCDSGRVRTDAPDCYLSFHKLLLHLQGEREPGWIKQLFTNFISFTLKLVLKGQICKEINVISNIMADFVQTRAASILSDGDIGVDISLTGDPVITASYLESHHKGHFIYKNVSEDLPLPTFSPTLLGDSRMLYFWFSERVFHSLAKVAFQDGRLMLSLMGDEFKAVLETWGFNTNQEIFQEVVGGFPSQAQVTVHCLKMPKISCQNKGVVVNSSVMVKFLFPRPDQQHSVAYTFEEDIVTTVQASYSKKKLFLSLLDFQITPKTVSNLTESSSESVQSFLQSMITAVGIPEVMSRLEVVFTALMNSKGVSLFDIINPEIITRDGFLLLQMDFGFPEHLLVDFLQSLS

[2] = target: T1, Cholesteryl ester transfer protein; assay: Inhibition of CETP in 95% human serum assessed as inhibition of transfer of [3H] cholesteryl oleate or [3H] triolein between LDL and HDL; assay type: cell-free
[3] = In vivo inhibition of CETP in cynomolgus-CETP transgenic mouse assessed as increase in plasma HDL-C level at 1 mg/kg, po measured after 4 hrs; assay type: functional; design: scale not given: the % may be the effect or the level left
[4] = Plasma concentration in cynomolgus-CETP transgenic mouse at 1 mg/kg, po measured after 4 hrs; assay type: ADME, organism-based
[5] = In vivo inhibition of CETP in cynomolgus-CETP transgenic mouse plasma at 1 mg/kg, po measured after 4 hrs; assay type: functional
[6] = In vivo inhibition of CETP in cynomolgus-CETP transgenic mouse assessed as increase in plasma HDL-C level at 0.3 mg/kg, po measured after 4 hrs; assay type: functional; design: scale not given: the % may be the effect or the level left
[7] = Plasma concentration in cynomolgus-CETP transgenic mouse at 0.3 mg/kg, po measured after 4 hrs; assay type: ADME, organism-based
[8] = In vivo inhibition of CETP in cynomolgus-CETP transgenic mouse plasma at 0.3 mg/kg, po measured after 4 hrs; assay type: functional

Row | Structure (SMILES) | IC50 [1] | IC50 [2] | further results
1 | COc1ncc(-c2c(C)cc(C(=O)NC3(C#N)CC3)cc2C)cc1-c1ccc(C(F)(F)F)cc1[C@@H]1CC[C@H]2[C@@H](c3cc(C(F)(F)F)cc(C(F)(F)F)c3)NC(=O)N12 | 0.055 µM | 0.095 µM | Activity [3]: 30%; concentration at 4 h [4]: 1000 nM; inhibition in vivo at 1 mg/kg [5]: 67%
2 | COc1ncc(-c2ccc(C(=O)O)cc2C)cc1-c1ccc(C(F)(F)F)nc1CN1C(=O)N[C@H](c2cc(C(F)(F)F)cc(C(F)(F)F)c2)[C@@H]1C | 0.017 µM | 0.364 µM | Activity [3]: 139%; concentration at 4 h [4]: 1260 nM; inhibition in vivo at 1 mg/kg [5]: 87%
3 | COc1ccc(-c2ccc(C(=O)O)cc2C)cc1-c1ccc(C(F)(F)F)cc1[C@@H]1CC[C@H]2[C@@H](c3cc(C(F)(F)F)cc(C(F)(F)F)c3)N(C)C(=O)N12 | 0.414 µM | – | –
4 | COc1ncc(-c2ccc(C(=O)O)cc2C)cc1-c1ccc(C(F)(F)F)cc1CN1C(=O)N(C)[C@H](c2cc(C(F)(F)F)cc(C(F)(F)F)c2)[C@@H]1C | 0.028 µM | 0.129 µM | Activity [6]: 51%; concentration at 4 h [7]: 630 nM; inhibition in vivo at 0.3 mg/kg [8]: 77%
5 | COc1ccc(CCC(=O)O)cc1-c1ccc(C(F)(F)F)cc1[C@@H]1CC[C@H]2[C@@H](c3cc(C(F)(F)F)cc(C(F)(F)F)c3)NC(=O)N12 | 0.55 µM | – | –
6 | COc1ccc([C@H]2CC[C@H](C(=O)O)CC2)cc1-c1ccc(C(F)(F)F)cc1[C@@H]1CC[C@H]2[C@@H](c3cc(C(F)(F)F)cc(C(F)(F)F)c3)NC(=O)N12 | 1.11 µM | 1.73 µM | –
7 | COc1ccc(-c2cccnc2C)cc1-c1ccc(C(F)(F)F)cc1[C@@H]1CC[C@H]2[C@@H](c3cc(C(F)(F)F)cc(C(F)(F)F)c3)NC(=O)N12 | 0.151 µM | – | –
8 | COc1ccc(-c2ccc(C(=O)O)cc2C)cc1-c1ccc(C(F)(F)F)cc1[C@@H]1CC[C@H]2[C@@H](c3cc(C(F)(F)F)cc(C(F)(F)F)c3)NS(=O)(=O)N12 | 0.135 µM | – | –
9 | COc1ccc(-c2ccc(C(=O)O)cc2C)cc1-c1ccc(C(F)(F)F)nc1CN1C(=O)N[C@H](c2cc(C(F)(F)F)cc(C(F)(F)F)c2)[C@@H]1C | 0.018 µM | 0.446 µM | Activity [3]: 86%; concentration at 4 h [4]: 830 nM; inhibition in vivo at 1 mg/kg [5]: 89%
10 | COc1ccc(-c2ccc(C(=O)O)cc2C)cc1-c1cnc(C(F)(F)F)cc1[C@@H]1CC[C@H]2[C@@H](c3cc(C(F)(F)F)cc(C(F)(F)F)c3)NC(=O)N12 | 0.544 µM | – | –
11 | COc1ccc(-c2ccc(C(=O)O)cc2C)cc1-c1ccc(C(F)(F)F)cc1CN1C(=O)N[C@H](c2cc(C(F)(F)F)cc(C(F)(F)F)c2)[C@@H]1C | 0.037 µM | 0.339 µM | Activity [3]: 101%; concentration at 4 h [4]: 700 nM; inhibition in vivo at 1 mg/kg [5]: 87%
12 | COc1cc(F)c(C(C)C)cc1-c1ccc(C(F)(F)F)cc1CN1C(=O)N[C@H](c2cc(C(F)(F)F)cc(C(F)(F)F)c2)[C@@H]1C | 2.78 µM | > 10 µM | –
13 | COc1ncc(-c2ccc(C(=O)O)cc2C)cc1-c1ccc(C(F)(F)F)cc1CN1C(=O)N[C@H](c2cc(C(F)(F)F)cc(C(F)(F)F)c2)[C@@H]1C | 0.038 µM | 0.397 µM | –
14 | COc1ccc(-c2ccc(C(=O)O)cc2C)cc1-c1ccc(C(F)(F)F)cc1[C@@H]1CC[C@H]2[C@@H](c3cc(C(F)(F)F)cc(C(F)(F)F)c3)NC(=O)N12 | 0.379 µM | – | –
15 | COc1ncc(-c2ccc(C(=O)O)cc2C)cc1-c1ccc(C(F)(F)F)cc1[C@@H]1CC[C@H]2[C@@H](c3cc(C(F)(F)F)cc(C(F)(F)F)c3)N(C)C(=O)N12 | 0.248 µM | – | –
16 | COc1ncc(-c2c(C)cc(C(=O)O)cc2C)cc1-c1ccc(C(F)(F)F)cc1[C@@H]1CC[C@H]2[C@@H](c3cc(C(F)(F)F)cc(C(F)(F)F)c3)NC(=O)N12 | 0.104 µM | – | –
17 | COc1ncc(-c2ccc(C(=O)O)cc2C)cc1-c1ccc(C(F)(F)F)cc1[C@@H]1CC[C@H]2[C@@H](c3cc(C(F)(F)F)cc(C(F)(F)F)c3)NC(=O)N12 | 0.106 µM | 0.305 µM | Activity [6]: 58%; concentration at 4 h [7]: 550 nM; inhibition in vivo at 0.3 mg/kg [8]: 32%
18 | COc1ccc([C@H]2CC[C@H](C(=O)O)CC2)cc1-c1ccc(C(F)(F)F)cc1[C@@H]1CC[C@H]2[C@@H](c3cc(C(F)(F)F)cc(C(F)(F)F)c3)NS(=O)(=O)N12 | 0.394 µM | 2.68 µM | –
19 | COc1ccc(-c2ccc(C(=O)O)nc2C)cc1-c1ccc(C(F)(F)F)cc1[C@@H]1CC[C@H]2[C@@H](c3cc(C(F)(F)F)cc(C(F)(F)F)c3)NC(=O)N12 | 0.468 µM | – | –
